Tests used:
[1] = system: J774A.1 murine macrophages; assay: macrophages treated with palmitate in vitro; format: cell-based; conditions: 400 μM palmitate, 16 hours
Experimental: J774A.1 murine macrophages were maintained in DMEM (10% FBS) until 80% confluence. A 2 mM palmitate solution or methanol vehicle in alpha-MEM (12% BSA) was added to fresh DMEM (10% FBS) to give a final concentration of 400 μM palmitate. Concomitantly, PDX, RvE1, RvD1 (10 or 100 nM, Cayman chemical), or vehicle was added to the media. After 16 hours, the media was collected and cells were lysed as described for the studies in C2C12 myotubes.
(§1) Snap frozen gastrocnemius muscle and liver from mice were pulverized in liquid nitrogen then lysed overnight at 4° C. in the lysis buffer described for the C2C12 myotube experiments. Immunoblotting of myotube, macrophage, liver and muscle lysates was then performed as previously described^5. Briefly, 50 ug of protein was loaded onto a 7.5% acrylamide gel, subjected to SDS-PAGE then transferred onto nitrocellulose membranes. Membranes were then blocked and probed with the appropriate antibodies. Antibodies for p-Akt ser473, p-JNK thr183/tyr185, JNK, p-AMPK thr172, AMPK, p-STAT-3 ser727 and STAT-3 were obtained from Cell Signaling Technology (MA, USA). Antibodies for total Akt and iNOS were from Santa Cruz Biotechnology (CA, USA) and BD Transduction Laboratories™ (Canada) respectively.
Chemokines and cytokines were quantified in macrophage media, or mouse plasma using the MILLIPLEX™ MAP mouse cytokine/chemokine kit (Millipore Corporation, MA, USA). Nitrite accumulation in media was determined by Greiss assay as previously described^25. Plasma insulin levels were assessed by RIA (Linco, MI, USA). FFA were measured using an enzymatic colorimetric assay (Wako Chemicals, VA, USA). Skeletal muscle and liver IL-6 were quantified using the mouse IL-6 ELISA kit from R&D systems. Total plasma adiponectin was determined using the ELISA from ALPCO.

[2] = system: wild-type (WT) C57BL/6J control mice; assay: second paired saline/lipid infusion 2.5 mU/kg/min hyperinsulinemic-euglycemic clamp, wild-type mice; format: in vivo
Experimental: For the second paired lipid infusion HIE clamp study, 10 week old male B6.129S2-ll6^tmkopf/J (IL-6 KO) and control C57BL/6J (WT) mice from Jackson Labs were used. Mice from each genetic background were randomly assigned to saline-vehicle, saline-PDX, lipid-vehicle and lipid-PDX groups. The lipid-infusion clamp study was performed as described above, except the clamp was performed with a 2.5 mU·kg^−1·min^−1 insulin infusion as per^29.
To confirm the involvement of IL-6 in the beneficial effects of PDX we performed a second round of paired lipid infusion hyperinsulinemic-euglycemic clamp studies in IL-6 null (KO) mice alongside wild-type (WT) C57BL/6J control mice. Saline-infused mice treated with PDX were added to the study to ascertain whether PDX also improves glucose metabolism in insulin-sensitive mice. To ensure detection of potential differences between insulin-sensitive saline-infused animals we performed 2.5mU/kg/min rather than 4 mU/kg/min clamps.

[3] = system: lean C57BL/6J mice; assay: paired 6 h lipid infusion and 4 mU/kg hyperinsulinemic-euglycemic clamp; format: in vivo
Experimental: 14-week old male C57BL/6J mice from Jackson Labs were used for the first paired lipid infusion hyperinsulinemic-euglycemic clamp study. These mice were placed on a standard laboratory chow diet with free access to food and water and kept in a 12 h light 12 h dark cycle at the Laval University hospital research centre animal facility. Mice were randomly assigned to saline, lipid or lipid+PDX groups. Five days prior to the experiment, mice were anesthetized and PE-10 catheters (Harvard Apparatus, QC, Canada) were inserted into the left common carotid artery and the right jugular vein for blood sampling and infusions respectively. Mice were fasted for 5 h leading up to the protocol. Immediately prior to the start of the lipid infusion, PDX (1 ug) or an equal volume of vehicle was administered via the jugular catheter to each group. Mice were then infused for 6 h with saline (5ml·kg^−1·h^−1) or lipid (20% intralipid emulsion (Baxter, ON, Canada) 5ml·kg^−1·h^−1 with 20 IU·ml^−1 heparin (LEO pharma, ON, Canada)). 2.5h into the infusion PDX (1 ug) or vehicle was again administered to the appropriate groups and the HIE clamp was initiated as previously described ^8,27. The clamp protocol consisted of a 90 min tracer equilibration period followed by a 120 min experimental period. A 5-μCi bolus of [3-^3H]glucose was given at the start of the tracer equilibration period followed by a 0.05-μCi/min infusion for 90 min. Blood samples were drawn for the assessment of glycemia, insulin and glucose turnover levels. Following the 90 min tracer equilibration period the clamp began with a primed-continuous infusion of human insulin (16 mU/kg bolus followed by 4 mU·kg^−1·min^−1, Humulin R; Eli Lilly, Indianapolis, Ind.). The [3-^3H]glucose infusion was increased to 0.2 μCi/min for the remainder of the experiment. Euglycemia (6.0-7.0 mM) was maintained during clamps by infusing 20% dextrose as necessary. Blood samples were taken continuously to determine glucose specific activity as well as insulin concentrations. Mice received saline-washed erythrocytes from donor mice throughout the experimental period (5-6 μl·min-1) to prevent a fall of ≧5% hematocrit. HGP and Rd were determined using Mari's non-steady-state equations for a two-compartmental model^28.
as §1
RNA was extracted from C2C12 myotubes using an RNeasy® mini kit from QIAGEN. RNA from homogenized liver tissue was extracted using an RNeasy® fibrous tissue mini kit from QIAGEN. RNA was then reverse transcribed to cDNA using the high-capacity cDNA reverse transcription kit from applied biosystems. Real-time PCR for Ppargc1, Pck1, G6Pc, and GAPDH was then performed using Taqman assay on demand probes and primers from Applied Biosystems in a CFX96 real-time system from BIO-RAD. The relative expression of genes of interest was then determined by normalization to the housekeeping gene GAPDH using the comparative CT method for relative gene expression^30.
Chemokines and cytokines were quantified in macrophage media, or mouse plasma using the MILLIPLEX™ MAP mouse cytokine/chemokine kit (Millipore Corporation, MA, USA). Nitrite accumulation in media was determined by Greiss assay as previously described^25. […]

[4] = saline and lipid-infused WT mice, P<0.05

## CC/C=C\C[C@H](O)/C=C/C=C\C=C\[C@@H](O)C/C=C\C/C=C\CCC(=O)O [PDX, 10S,17S-dihydroxy-docosa-4Z,7Z,11E,13Z,15E,19Z-hexaeonic acid]
[1]
  iNOS and JNK activation: effectively suppresses
  lipid-induced IL-6 production: actually suppresses
[1]; PDX 10 or 100 nM
  lipid-induced secretion of CCL2/MCP-1, CCL5/RANTES, TNFα, IL-2, and IL-10: effectively suppresses
[2]; insulin sensitive saline infused mice
  Akt phosphorylation: without raising
[2]; lipid-infused WT mice, P<0.001
  hepatic insulin action: improved
[2]; lipid-infused WT mice, P<0.01, P<0.05, p<0.001
  suppression of Ppargc1, Pck1 and G6Pc (liver mRNA): significantly improved the suppression
[2]; lipid-infused WT mice, P<0.05
  peripheral insulin action: improved
[2]; [4]
  GIR: significantly enhanced
  pre-clamp glycemia: significant fall
[2]; saline-infused WT mice, P<0.01
  transcriptional repression of PEPCK (liver): additive effect
[2]; saline-infused WT mice, P<0.05
  hepatic insulin action: superior hepatic insulin action
[2]; saline-infused WT mice, P=0.0614
  suppression of G6Pc (liver): tended to improve
[2]; saline-infused mice
  peripheral glucose disposal: did not increase
  suppression of PGC-1α (liver mRNA): not associated with further suppression
[3]; P<0.05
  phosphorylation of AMPK on Thr172 in muscle: robust phosphorylation
  phosphorylation of hepatic STAT-3 on Ser727: enhancing
[3]; PDX 1 ug i.v. immediately prior to and 2.5 h into 6 h lipid infusion, vs saline and lipid-treated animals, P<0.01
  pre-clamp glycemia: significant lowering
[3]; PDX 1 ug i.v. x2, lipid-infused
  peripheral insulin action: partial restoration
[3]; PDX 1 ug i.v. x2, lipid-infused, P<0.001
  lipid-induced decline in whole-body insulin sensitivity (glucose infusion rate, GIR): completely prevented the lipid-induced decline
[3]; PDX 1 ug i.v. x2, lipid-infused, significantly greater than saline-infused mice, P<0.05
  hepatic insulin action: markedly increased
[3]; both lipid-infused groups (with and without PDX)
  adiponectin in plasma: similarly reduced levels
[3]; expression profile compared with plasma IL-6
  IL-6 protein expression in skeletal muscle: closely resembled that of plasma
[3]; liver and skeletal muscle, immunoblot
  phosphorylation of Akt on Ser473: confirmed the improved insulin action
[3]; liver, immunoblot
  JNK activation (phosphorylation on Thr183/Tyr185): prevents
[3]; mouse, in vivo
  liver IL-6 levels: no significant effect
  suppression of PGC-1α and PEPCK in liver (mRNA): enhancing
[3]; muscle and liver, immunoblot
  lipid-mediated induction of iNOS: represses
[3]; plasma, lipid-infused
  lipid-induced secretion of cytokines TNFα, IFNγ, IL-1β, IL-2 and IL-17: strongly suppresses
  lipid-induced secretion of proinflammatory chemokines CCL2/MCP-1 and CCL5/RANTES: strongly suppresses
[3]; plasma, P<0.001
  increase in IL-6 beyond that induced by lipid infusion alone: ~7 fold
[3]; tendency, P=0.08
  suppression of G6Pase in liver (mRNA): did not reach significance
